≈ marks a conversion by molar mass, not a printed value.
Tests used:
[1] = molecular target: T1, Glucose-dependent insulinotropic receptor (Mus musculus, UniProt Q7TQP3); assay: Agonist activity at mouse GPR119 expressed in CHO cells co-expressing Galpha15 assessed as increase of intracellular cAMP accumulation after 60 mins by HTRF assay; type: functional, cell-based
T1 sequence (Q7TQP3 whole entry): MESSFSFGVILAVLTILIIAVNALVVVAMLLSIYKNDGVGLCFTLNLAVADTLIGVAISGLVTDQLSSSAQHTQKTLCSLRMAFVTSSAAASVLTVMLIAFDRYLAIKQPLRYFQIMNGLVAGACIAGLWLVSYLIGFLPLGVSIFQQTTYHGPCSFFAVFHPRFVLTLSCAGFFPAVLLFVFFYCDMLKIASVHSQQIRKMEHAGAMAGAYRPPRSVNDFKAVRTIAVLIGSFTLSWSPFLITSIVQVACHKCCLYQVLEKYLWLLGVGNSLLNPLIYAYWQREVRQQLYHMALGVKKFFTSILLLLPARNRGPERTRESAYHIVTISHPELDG

[2] = molecular target: T2, Glucose-dependent insulinotropic receptor (Homo sapiens, UniProt Q8TDV5); assay: Agonist activity at human GPR119 expressed in CHO cells co-expressing Galpha15 assessed as increase of intracellular cAMP accumulation after 60 mins by HTRF assay; type: functional, cell-based
T2 sequence (Q8TDV5 whole entry): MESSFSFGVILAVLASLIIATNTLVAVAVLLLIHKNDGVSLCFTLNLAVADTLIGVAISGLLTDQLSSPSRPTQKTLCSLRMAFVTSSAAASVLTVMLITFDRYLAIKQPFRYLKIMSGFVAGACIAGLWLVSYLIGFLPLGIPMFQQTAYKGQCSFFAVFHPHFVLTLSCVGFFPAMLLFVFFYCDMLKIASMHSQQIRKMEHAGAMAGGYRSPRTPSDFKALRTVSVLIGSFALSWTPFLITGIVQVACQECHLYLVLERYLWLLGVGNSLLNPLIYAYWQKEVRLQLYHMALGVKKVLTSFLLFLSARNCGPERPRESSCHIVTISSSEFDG

[3] = molecular target: T3, Voltage-gated inwardly rectifying potassium channel KCNH2 (Homo sapiens, UniProt Q12809); assay: Inhibition of human ERG
T3 sequence (Q12809 whole entry): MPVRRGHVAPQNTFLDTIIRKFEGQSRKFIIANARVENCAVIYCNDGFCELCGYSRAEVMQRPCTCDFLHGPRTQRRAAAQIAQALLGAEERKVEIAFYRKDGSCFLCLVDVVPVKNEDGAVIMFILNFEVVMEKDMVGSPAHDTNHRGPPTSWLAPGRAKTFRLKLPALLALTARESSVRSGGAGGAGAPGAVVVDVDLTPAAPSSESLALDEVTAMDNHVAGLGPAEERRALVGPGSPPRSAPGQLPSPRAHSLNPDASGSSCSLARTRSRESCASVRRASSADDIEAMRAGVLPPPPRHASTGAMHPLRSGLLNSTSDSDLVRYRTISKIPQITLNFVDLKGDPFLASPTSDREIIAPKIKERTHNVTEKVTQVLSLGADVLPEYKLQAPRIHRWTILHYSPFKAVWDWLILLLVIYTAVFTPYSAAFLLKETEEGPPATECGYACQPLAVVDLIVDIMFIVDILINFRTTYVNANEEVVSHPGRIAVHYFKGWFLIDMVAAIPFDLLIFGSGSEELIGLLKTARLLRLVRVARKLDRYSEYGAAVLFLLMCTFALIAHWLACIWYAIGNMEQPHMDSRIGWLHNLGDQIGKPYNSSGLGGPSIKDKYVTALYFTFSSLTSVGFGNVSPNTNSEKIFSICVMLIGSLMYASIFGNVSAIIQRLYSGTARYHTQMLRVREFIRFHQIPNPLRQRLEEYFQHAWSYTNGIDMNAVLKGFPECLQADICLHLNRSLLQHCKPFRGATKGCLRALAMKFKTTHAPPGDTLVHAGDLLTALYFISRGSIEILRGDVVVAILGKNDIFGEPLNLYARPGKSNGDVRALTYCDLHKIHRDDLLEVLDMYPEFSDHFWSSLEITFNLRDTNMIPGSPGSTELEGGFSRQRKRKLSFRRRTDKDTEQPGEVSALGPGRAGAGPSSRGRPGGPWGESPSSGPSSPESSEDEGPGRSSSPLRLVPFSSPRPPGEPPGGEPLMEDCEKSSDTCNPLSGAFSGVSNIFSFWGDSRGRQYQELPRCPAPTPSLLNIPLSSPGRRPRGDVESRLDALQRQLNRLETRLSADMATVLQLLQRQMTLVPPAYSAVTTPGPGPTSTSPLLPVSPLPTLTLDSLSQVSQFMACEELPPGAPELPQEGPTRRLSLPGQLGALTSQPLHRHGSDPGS

[4] = system: Mus musculus; assay: Antidiabetic activity in high fat fed C57BL/6 mouse assessed as change in AUC of blood glucose level at 30 mg/kg, po qd administered 1 hr before glucose challenge measured up to 120 mins by oral glucose tolerance test relative to control; type: functional, C57BL6
[5] = molecular target: T4, Glucose-dependent insulinotropic receptor (Mus musculus) (UniProt Q7TQP3); assay: Agonist activity at mouse GPR119 expressed in CHO cells co-expressing Galpha15 assessed as increase of intracellular cAMP accumulation at 10 uM after 60 mins by HTRF assay; type: functional, cell-based
T4 sequence (whole entry): T1 sequence (Q7TQP3 whole entry)

[6] = Volume of distribution at steady state in mouse at 1 mg/kg, iv and 10 mg/kg, po; type: ADME, organism-based; settings: in vivo, read-out: Vdss
[7] = system: Mus musculus; assay: Dose normalized AUC in mouse at 1 mg/kg, iv and 10 mg/kg, po; type: ADME, organism-based; settings: in vivo
[8] = Clearance in mouse at 1 mg/kg, iv and 10 mg/kg, po; type: ADME, organism-based; settings: in vivo
[9] = Half life in mouse at 1 mg/kg, iv and 10 mg/kg, po; type: ADME, organism-based; settings: in vivo
[10] = species: Canis familiaris; assay: Cardiotoxicity in dog assessed as QTc prolongation; type: toxicity, organism-based, Canis lupus familiaris; settings: in vivo
[11] = system: Mus musculus; assay: Antidiabetic activity in high fat fed po dosed C57BL/6 mouse assessed as change in AUC of blood glucose level administered 1 hr before glucose challenge measured up to 120 mins by oral glucose tolerance test; type: functional; settings: C57BL6, Blood, read-out: MED
[12] = Solubility of compound in PEG400 after 3 to 7 days; type: physicochemical
[13] = system: Mus musculus; assay: Antidiabetic activity in high fat fed C57BL/6 mouse assessed as change in AUC of blood glucose level at 3 mg/kg, po qd administered 1 hr before glucose challenge measured up to 120 mins by oral glucose tolerance test relative to control; type: functional, C57BL6
[14] = system: Mus musculus; assay: Antidiabetic activity in high fat fed C57BL/6 mouse assessed as change in AUC of blood glucose level at 10 mg/kg, po qd administered 1 hr before glucose challenge measured up to 120 mins by oral glucose tolerance test relative to control; type: functional, C57BL6
[15] = system: Mus musculus; assay: Antidiabetic activity in high fat fed C57BL/6 mouse assessed as change in AUC of blood glucose level at 1 mg/kg, po qd administered 1 hr before glucose challenge measured up to 120 mins by oral glucose tolerance test relative to control; type: functional, C57BL6
[16] = molecular target: T3, Voltage-gated inwardly rectifying potassium channel KCNH2; assay: Inhibition of human ERG by patch clamp technique
[17] = molecular target: T5, Glucose-dependent insulinotropic receptor (Homo sapiens) (UniProt Q8TDV5); assay: Agonist activity at human GPR119 expressed in CHO cells co-expressing Galpha15 assessed as increase of intracellular cAMP accumulation at 10 uM after 60 mins by HTRF assay; type: functional, cell-based
T5 sequence (whole entry): T2 sequence (Q8TDV5 whole entry)

EC50 [1] | EC50 [2] | SMILES | also measured
9 nM | 38 nM | O=C(NC1CC1)c1ccc(OCC2CC2C2CCN(c3ncc(Cl)cn3)CC2)cc1F (racemic; 51) | –
2 nM | 1 nM | Cc1cc(N2CCC(C3CCN(C(=O)OC(C)(C)C)CC3)CC2)nc(C#N)n1 | –
45 nM | 57 nM | Cc1cnc(N2CCC(C3CCN(c4ccc(S(C)(=O)=O)cc4)CC3)CC2)nc1 | –
8 nM | 13 nM | CS(=O)(=O)c1ccc(N2CCC(C3CCN(c4ccc(C(F)(F)F)cn4)CC3)CC2)cc1 | –
23 nM | 20 nM | O=C(NC1CC1)c1ccc(OCC2CC2C2CCN(c3ncc(Cl)cn3)CC2)cc1F (racemic; 52) | –
2 nM | 3 nM | O=C(NC1CC1)c1ccc(OCCC2CC2C2CCN(c3ncc(Cl)cn3)CC2)cc1F (single isomer, unassigned; (-)) | IC50 [3]: 2600 nM
82 nM | 30 nM | Cc1cnc(N2CCC(C3CCN(c4cc(C#N)nc(C)n4)CC3)CC2)cn1 | IC50 [3]: 5400 nM; Activity [4]: 7%
8 nM | 5 nM | CS(=O)(=O)c1ccc(N2CCC(C3CCN(c4ncc(Cl)cn4)CC3)CC2)cc1 | –
– | 1400 nM | CC(C)(C)OC(=O)N1CCC(C2CCN(c3ccccc3)CC2)CC1 | Activity [5]: < 10%
131 nM | 48 nM | CS(=O)(=O)c1ccc(N2CCC(C3CCN(c4ccc(Cl)cn4)CC3)CC2)cc1 | Vd [6]: 2.3 L/kg; AUC [7]: 19.3 µM·kg·h/mg; clearance [8]: 2 mL/min/kg; half-life [9]: 13.5 h
513 nM | 600 nM | CSc1ccc(N2CCC(C3CCN(C(=O)OC(C)(C)C)CC3)CC2)cc1 | –
2500 nM | 831 nM | CC(C)(C)OC(=O)N1CCC(C2CCN(c3ccccn3)CC2)CC1 | –
10 nM | 8 nM | Cc1cnc(N2CCC(C3CCN(c4cc(C#N)nc(C)n4)CC3)CC2)nc1 | IC50 [3]: 1800 nM; Activity [4]: 46%
2 nM | 2 nM | Cc1cnc(N2CCC([C@H]3C[C@H]3CCOc3nc(C)cc(C#N)n3)CC2)nc1 | Activity [10]: Toxic; minimal effective dose [11]: 0.01 mg/kg; solubility [12]: 24800 µg/mL (≈ 65.5 mM)
341 nM | 25 nM | CC(=O)c1ccc(N2CCC(C3CCN(C(=O)OC(C)(C)C)CC3)CC2)cc1 | –
64 nM | 19 nM | Cc1cnc(N2CCC(C3CCN(c4cc(C)nc(C#N)n4)CC3)CC2)cn1 | Activity [13]: 26%; Activity [14]: 30%; Activity [15]: 7%; Activity [4]: 35%
239 nM | 201 nM | CS(=O)(=O)c1ccc(N2CCC(C3CCN(c4cnccn4)CC3)CC2)cc1 | –
11 nM | 6 nM | CC(C)(C)OC(=O)N1CCC(C2CCN(c3ccnc(C#N)n3)CC2)CC1 | –
– | 3600 nM | CC(C)(C)OC(=O)N1CCC(C2CCN(c3cccnc3)CC2)CC1 | Activity [5]: < 10%
36 nM | 22 nM | CC(C)(C)OC(=O)N1CCC(C2CCN(c3ccc(S(C)(=O)=O)cc3)CC2)CC1 | Vd [6]: 6.9 L/kg; AUC [7]: 0.09 µM·kg·h/mg; clearance [8]: 120 mL/min/kg; half-life [9]: 0.6 h
6 nM | 4 nM | Clc1cnc(N2CCC([C@H]3C[C@H]3CCOc3ccc(-n4ccnn4)cc3)CC2)nc1 | minimal effective dose [11]: 10 mg/kg; solubility [12]: 5000 µg/mL (≈ 11.8 mM)
206 nM | 19 nM | CS(=O)(=O)c1ccc(N2CCC(C3CCN(c4ccc(F)cn4)CC3)CC2)cc1 | –
– | 514 nM | Cc1cccc(N2CCC(C3CCN(C(=O)OC(C)(C)C)CC3)CC2)c1 | Activity [5]: < 10%
4 nM | 4 nM | CS(=O)(=O)c1ccc(OCC[C@@H]2C[C@@H]2C2CCN(c3ncc(Cl)cn3)CC2)nc1 | Vd [6]: 2.1 L/kg; Activity [10]: Non-toxic; minimal effective dose [11]: 1 mg/kg; solubility [12]: 7100 µg/mL (≈ 16.2 mM); AUC [7]: 12.1 µM·kg·h/mg; IC50 [16]: 19000 nM; clearance [8]: 2.1 mL/min/kg; half-life [9]: 12.4 h

EC50 [1] | EC50 [2] | SMILES | also measured
142 nM | 103 nM | CC(C)(C)OC(=O)N1CCC(C2CCN(c3cnccn3)CC2)CC1 | –
18 nM | 9 nM | O=C(NC1CC1)c1ccc(OCC2CC2CC2CCN(c3ncc(Cl)cn3)CC2)cc1F (racemic; 57) | IC50 [3]: > 30000 nM
73 nM | 18 nM | Cc1ccc(N2CCC(C3CCN(c4ccc(S(C)(=O)=O)cc4)CC3)CC2)nc1 | –
– | – | Cc1ccnc(N2CCC(C3CCN(c4ccc(S(C)(=O)=O)cc4)CC3)CC2)n1 | Activity [5]: < 10%; Activity [17]: < 10%
– | – | CC(C)(C)OC(=O)N1CCC(C2CCN(c3cccc(C(N)=O)c3)CC2)CC1 | Activity [5]: < 10%; Activity [17]: < 10%
11 nM | 2 nM | Cc1cc(N2CCC(C3CCN(c4ncc(Cl)cn4)CC3)CC2)nc(C#N)n1 | Activity [4]: 37%
41 nM | 62 nM | CS(=O)(=O)c1ccc(N2CCC(C3CCN(c4ccc(C#N)cn4)CC3)CC2)cc1 | –
– | – | Cc1ccccc1N1CCC(C2CCN(C(=O)OC(C)(C)C)CC2)CC1 | Activity [5]: < 10%; Activity [17]: < 10%
36 nM | 18 nM | O=C(NC1CC1)c1ccc(OCC2CC2CC2CCN(c3ncc(Cl)cn3)CC2)cc1F (racemic; 56) | IC50 [3]: 1200 nM
0.8 nM | 0.2 nM | O=C(NC1CC1)c1ccc(OCCCC2CC2CCCC2CCN(c3ncc(Cl)cn3)CC2)cc1F (racemic) | –
165 nM | 76 nM | CC(C)(C)OC(=O)N1CCC(C2CCN(c3ccc(C(N)=O)cc3)CC2)CC1 | –
682 nM | 39 nM | CS(=O)(=O)c1ccc(N2CCC(C3CCN(c4ccccn4)CC3)CC2)cc1 | –
4 nM | 2 nM | Clc1cnc(N2CCC([C@H]3C[C@H]3CCOc3ccc(-n4ccnn4)cn3)CC2)nc1 | minimal effective dose [11]: 1 mg/kg; solubility [12]: 11400 µg/mL (≈ 26.8 mM); IC50 [16]: 44000 nM
1900 nM | 338 nM | Cc1ccc(N2CCC(C3CCN(C(=O)OC(C)(C)C)CC3)CC2)cc1 | –
379 nM | 116 nM | CC(C)(C)OC(=O)N1CCC(C2CCN(c3ccncn3)CC2)CC1 | –
31 nM | 6 nM | CC(C)(C)OC(=O)N1CCC(C2CCN(c3cc(C#N)ncn3)CC2)CC1 | –
132 nM | 11 nM | C[S+]([O-])c1ccc(N2CCC(C3CCN(C(=O)OC(C)(C)C)CC3)CC2)cc1 (configuration not stated) | –
5 nM | 14 nM | O=C(NC1CC1)c1ccc(OCCC2CC2C2CCN(c3ncc(Cl)cn3)CC2)cc1F (single isomer, unassigned; (+)) | IC50 [3]: > 30000 nM
2 nM | 2 nM | Cc1nc(C#N)cc(N2CCC(C3CCN(C(=O)OC(C)(C)C)CC3)CC2)n1 | –
523 nM | 526 nM | CC(C)(C)OC(=O)N1CCC(C2CCN(c3ncccn3)CC2)CC1 | –
– | 1900 nM | CC(C)(C)OC(=O)N1CCC(C2CCN(c3cccc(S(C)(=O)=O)c3)CC2)CC1 | Activity [5]: < 10%
887 nM | 98 nM | CS(=O)(=O)c1ccc(N2CCC(C3CCN(c4ncccn4)CC3)CC2)cc1 | –
0.4 nM | 0.3 nM | O=C(NC1CC1)c1ccc(OCCC2CC2C2CCN(c3ncc(Cl)cn3)CC2)cc1F (racemic) | IC50 [3]: > 30000 nM
